In patent US20020137929A1, “1 - (3-heterocyclylphenyl) isothiourea, -isourea, -guanidine and -amidine herbicidal agents” (Intellectual Property Department, BASF Aktiengesellschaft, priority 1998, published 2002):

Legend:
ABUTH (Velvetleaf) [1] = assay: Preemergence herbicidal evaluation; format: in vivo, Abutilon theophrasti; details: rated 4-5 weeks after treatment
In short: (§1)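 Sown cups got a single aqueous acetone spray of test compound (roughly 0.0156–0.500 kg/ha) before seedlings emerged. Evaluation, 4–5 weeks on, used a 0–9 visual scale covering plant stand, vigor, size, malformation, chlorosis and general appearance compared with controls.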

ORYSAT (Rice, Tebonnet) = assay: Postemergence herbicidal evaluation; format: in vivo, Oryza sativa, (L.) Tebonnet; details: for ORYSAT herbicidal rating: postemergence
In short: (§2)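 Visual 0–9 rating versus control (stand, vigor, malformation, size, chlorosis, overall appearance), taken four to five weeks post-spray. Two-week-old seedlings received roughly 0.0156–0.500 kg/ha active in acetone/water (50/50) with 0.5% TWEEN 20 via nozzle at 40 psi.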

[2] = tested on: SAGPY (Arrowhead (Pygmaea)); assay: Preemergence weed control under flooded paddy conditions; format: in vivo, Sagittaria pygmaea; details: rated 3-4 weeks after treatment
In short: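 Flooded-pot preemergence screen with silt loam and seeds in the upper 0.5 cm. Dose about 0.0313 to 0.500 kg/ha, delivered into flood water; visual 0-9 score after 3 to 4 weeks.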

[3] = tested on: TRZAWR (Wheat, Winter, cv Riband); assay: Postemergence herbicidal evaluation; format: in vivo, Triticum aestivum; details: for TRZAWR herbicidal rating: postemergence
In short: as §2

CYPIR (Rice Flatsedge) = assay: Postemergence weed control under flooded paddy conditions; format: in vivo, Cyperus iria; details: postemergence weeds
In short: (§3)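 Injury ratings (0–9 scale covering stand, vigor, malformation, size, chlorosis and overall appearance versus control) were made three to four weeks after treatment. Test material, about 0.0313 to 0.500 kg/ha a.i. in 50/50 v/v aqueous/acetone, was added to flood water 1.5 to 3 cm deep over 3 to 5 cm weeds and 1.5 to 2.5 leaf rice.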

AMBEL (Ragweed, Common) = assay: Postemergence herbicidal evaluation; format: in vivo, Ambrosia artemisifolia; details: for AMBEL herbicidal rating: postemergence
In short: as §2

[4] = tested on: SAGPY (Arrowhead (Pygmaea)); assay: Postemergence weed control under flooded paddy conditions; format: in vivo, Sagittaria pygmaea; details: postemergence weeds
In short: as §3

CASOB (Sicklepod) = assay: Preemergence herbicidal evaluation; format: in vivo, Cassia obtusifolia; details: rated 4-5 weeks after treatment
In short: as §1

SETVI (Foxtail, Green) [5] = assay: Postemergence herbicidal evaluation; format: in vivo, Setaria viridis; details: for SETVI herbicidal rating: postemergence
In short: as §2

ECHCG (Barnyardgrass) = assay: Postemergence herbicidal evaluation; format: in vivo, Echinochloa crus-galli; details: for ECHCG herbicidal rating: postemergence
In short: as §2

[6] = tested on: GLXMAW (Soybean, Williams); assay: Postemergence herbicidal evaluation; format: in vivo, Glycine max, (L.) Merr. cv Williams; details: for GLXMAW herbicidal rating: postemergence
In short: as §2

SETVI (Foxtail, Green) [7] = assay: Preemergence herbicidal evaluation; format: in vivo, Setaria viridis; details: rated 4-5 weeks after treatment
In short: as §1

ABUTH (Velvetleaf) [8] = assay: Postemergence herbicidal evaluation; format: in vivo, Abutilon theophrasti; details: for ABUTH herbicidal rating: postemergence
In short: as §2

[9] = Rate 0.0313 kg/ha, rated 3 to 4 weeks after treatment
[10] = Rate 0.0625 kg/ha, rated 3 to 4 weeks after treatment
[11] = Rate 0.1250 kg/ha, rated 3 to 4 weeks after treatment
[12] = Rate 0.2500 kg/ha, rated 3 to 4 weeks after treatment
[13] = rate 0.1250 kg/ha, 3-4 weeks after treatment
[14] = rate 0.2500 kg/ha, 3-4 weeks after treatment

CCOC(=O)C(c1ccc(Cl)cc1)N1C(=O)CSC1=Nc1cc(-n2c(=O)cc(C(F)(F)F)n(C)c2=O)c(F)cc1Cl (racemic) [Compound 79, Ethyl α-(p-chlorophenyl)-2-{{2-chloro-5-[3,6-dihydro-3-methyl-2,6-dioxo-4-(trifluoromethyl)-1(2H)-pyrimidinyl]-4-fluorophenyl}imino}-4-oxo-3-thiazolidineacetate, DL-]
Preemergence herbicidal rating ABUTH (ABUTH (Velvetleaf) [1]; rate 0.0313 kg/ha): 0.0
Preemergence herbicidal rating ABUTH (ABUTH (Velvetleaf) [1]; rate 0.0625 kg/ha): 2.0
Preemergence herbicidal rating ABUTH (ABUTH (Velvetleaf) [1]; rate 0.1250 kg/ha): 6.0
Preemergence herbicidal rating ABUTH (ABUTH (Velvetleaf) [1]; rate 0.2500 kg/ha): 9.0
ORYSAT herbicidal rating (ORYSAT (Rice, Tebonnet); rate 0.0158 kg/ha): 2.5
ORYSAT herbicidal rating (ORYSAT (Rice, Tebonnet); rate 0.0315 kg/ha): 2.5
ORYSAT herbicidal rating (ORYSAT (Rice, Tebonnet); rate 0.0630 kg/ha): 4.0
SAGPY herbicidal effect rating ([2]; 0.0313 kg/ha): 0.0
SAGPY herbicidal effect rating ([2]; 0.0625 kg/ha): 0.0
SAGPY herbicidal effect rating ([2]; 0.1250 kg/ha): 4.0
SAGPY herbicidal effect rating ([2]; 0.2500 kg/ha): 4.0
TRZAWR herbicidal rating ([3]; rate 0.0158 kg/ha): 3.0
TRZAWR herbicidal rating ([3]; rate 0.0315 kg/ha): 2.5
TRZAWR herbicidal rating ([3]; rate 0.0630 kg/ha): 5.0
Herbicidal rating CYPIR (CYPIR (Rice Flatsedge); [9]): 0.0
Herbicidal rating CYPIR (CYPIR (Rice Flatsedge); [10]): 0.0
Herbicidal rating CYPIR (CYPIR (Rice Flatsedge); [11]): 2.0
Herbicidal rating CYPIR (CYPIR (Rice Flatsedge); [12]): 6.0
AMBEL herbicidal rating (AMBEL (Ragweed, Common); rate 0.0158 kg/ha): 6.0
AMBEL herbicidal rating (AMBEL (Ragweed, Common); rate 0.0315 kg/ha): 7.0
AMBEL herbicidal rating (AMBEL (Ragweed, Common); rate 0.0630 kg/ha): 9.0
Herbicidal rating SAGPY [4, 9]: 0.0
Herbicidal rating SAGPY [4, 10]: 0.0
Herbicidal rating SAGPY [4, 11]: 4.0
Herbicidal rating SAGPY [4, 12]: 4.0
Preemergence herbicidal rating CASOB (CASOB (Sicklepod); rate 0.0313 kg/ha): 1.0
Preemergence herbicidal rating CASOB (CASOB (Sicklepod); rate 0.0625 kg/ha): 0.0
Preemergence herbicidal rating CASOB (CASOB (Sicklepod); rate 0.1250 kg/ha): 0.0
Preemergence herbicidal rating CASOB (CASOB (Sicklepod); rate 0.2500 kg/ha): 1.0
SETVI herbicidal rating (SETVI (Foxtail, Green) [5]; rate 0.0158 kg/ha): 4.0
SETVI herbicidal rating (SETVI (Foxtail, Green) [5]; rate 0.0315 kg/ha): 1.0
SETVI herbicidal rating (SETVI (Foxtail, Green) [5]; rate 0.0630 kg/ha): 1.0
ECHCG herbicidal rating (ECHCG (Barnyardgrass); rate 0.0158 kg/ha): 1.0
ECHCG herbicidal rating (ECHCG (Barnyardgrass); rate 0.0315 kg/ha): 1.0
ECHCG herbicidal rating (ECHCG (Barnyardgrass); rate 0.0630 kg/ha): 1.0
GLXMAW herbicidal rating ([6]; rate 0.0158 kg/ha): 4.5
GLXMAW herbicidal rating ([6]; rate 0.0315 kg/ha): 5.0
GLXMAW herbicidal rating ([6]; rate 0.0630 kg/ha): 5.0
Preemergence herbicidal rating SETVI (SETVI (Foxtail, Green) [7]; rate 0.0313 kg/ha): 1.0
Preemergence herbicidal rating SETVI (SETVI (Foxtail, Green) [7]; rate 0.0625 kg/ha): 1.0
Preemergence herbicidal rating SETVI (SETVI (Foxtail, Green) [7]; rate 0.1250 kg/ha): 1.0
Preemergence herbicidal rating SETVI (SETVI (Foxtail, Green) [7]; rate 0.2500 kg/ha): 4.0
ABUTH herbicidal rating (ABUTH (Velvetleaf) [8]; rate 0.0158 kg/ha): 9.0
ABUTH herbicidal rating (ABUTH (Velvetleaf) [8]; rate 0.0315 kg/ha): 9.0
ABUTH herbicidal rating (ABUTH (Velvetleaf) [8]; rate 0.0630 kg/ha): 9.0

CCOC(=O)CCN1C(=O)CSC1=Nc1cc(-n2c(=O)cc(C(F)(F)F)n(C)c2=O)c(Cl)cc1Cl [Compound 32, Ethyl 2-{{2,4-dichloro-5-[3,6-dihydro-3-methyl-2,6-dioxo-4-(trifluoromethyl)-1(2H)-pyrimidinyl]-phenyl}imino}-4-oxo-3-thiazolidinepropionate]
Preemergence herbicidal rating ABUTH (ABUTH (Velvetleaf) [1]; rate 0.0156 kg/ha): 0.0
Preemergence herbicidal rating ABUTH (ABUTH (Velvetleaf) [1]; rate 0.0313 kg/ha): 2.5
Preemergence herbicidal rating ABUTH (ABUTH (Velvetleaf) [1]; rate 0.0625 kg/ha): 1.5
Preemergence herbicidal rating ABUTH (ABUTH (Velvetleaf) [1]; rate 0.1250 kg/ha): 9.0
Preemergence herbicidal rating ABUTH (ABUTH (Velvetleaf) [1]; rate 0.2500 kg/ha): 9.0
Preemergence herbicidal rating ABUTH (ABUTH (Velvetleaf) [1]; rate 0.5000 kg/ha): 9.0
Postemergence herbicidal rating ORYSAT (ORYSAT (Rice, Tebonnet); Rate 0.0158 kg/ha): 1.0
Postemergence herbicidal rating ORYSAT (ORYSAT (Rice, Tebonnet); Rate 0.0313 kg/ha): 2.0
Postemergence herbicidal rating ORYSAT (ORYSAT (Rice, Tebonnet); Rate 0.0625 kg/ha): 3.0
Postemergence herbicidal rating ORYSAT (ORYSAT (Rice, Tebonnet); Rate 0.1250 kg/ha): 3.5
Herbicidal rating SAGPY ([2]; 0.1250 kg/ha): 0.0
Herbicidal rating SAGPY ([2]; 0.2500 kg/ha): 0.0
Postemergence herbicidal rating TRZAWR ([3]; Rate 0.0158 kg/ha): 2.0
Postemergence herbicidal rating TRZAWR ([3]; Rate 0.0313 kg/ha): 3.5
Postemergence herbicidal rating TRZAWR ([3]; Rate 0.0625 kg/ha): 4.0
Postemergence herbicidal rating TRZAWR ([3]; Rate 0.1250 kg/ha): 4.0
Herbicidal rating CYPIR (CYPIR (Rice Flatsedge); [13]): 0.0
Herbicidal rating CYPIR (CYPIR (Rice Flatsedge); [14]): 0.0
Postemergence herbicidal rating AMBEL (AMBEL (Ragweed, Common); Rate 0.0158 kg/ha): 3.0
Postemergence herbicidal rating AMBEL (AMBEL (Ragweed, Common); Rate 0.0313 kg/ha): 0.0
Postemergence herbicidal rating AMBEL (AMBEL (Ragweed, Common); Rate 0.0625 kg/ha): 3.0
Postemergence herbicidal rating AMBEL (AMBEL (Ragweed, Common); Rate 0.1250 kg/ha): 9.0
Herbicidal rating SAGPY [4, 13]: 0.0
Herbicidal rating SAGPY [4, 14]: 0.0
Preemergence herbicidal rating CASOB (CASOB (Sicklepod); rate 0.0156 kg/ha): 0.5
Preemergence herbicidal rating CASOB (CASOB (Sicklepod); rate 0.0313 kg/ha): 0.0
Preemergence herbicidal rating CASOB (CASOB (Sicklepod); rate 0.0625 kg/ha): 0.0
Preemergence herbicidal rating CASOB (CASOB (Sicklepod); rate 0.1250 kg/ha): 0.0
Preemergence herbicidal rating CASOB (CASOB (Sicklepod); rate 0.2500 kg/ha): 0.0
Preemergence herbicidal rating CASOB (CASOB (Sicklepod); rate 0.5000 kg/ha): 0.0
Postemergence herbicidal rating SETVI (SETVI (Foxtail, Green) [5]; Rate 0.0158 kg/ha): 0.0
Postemergence herbicidal rating SETVI (SETVI (Foxtail, Green) [5]; Rate 0.0313 kg/ha): 0.0
Postemergence herbicidal rating SETVI (SETVI (Foxtail, Green) [5]; Rate 0.0625 kg/ha): 0.0
Postemergence herbicidal rating SETVI (SETVI (Foxtail, Green) [5]; Rate 0.1250 kg/ha): 7.0
Postemergence herbicidal rating ECHCG (ECHCG (Barnyardgrass); Rate 0.0158 kg/ha): 0.0
Postemergence herbicidal rating ECHCG (ECHCG (Barnyardgrass); Rate 0.0313 kg/ha): 0.0
Postemergence herbicidal rating ECHCG (ECHCG (Barnyardgrass); Rate 0.0625 kg/ha): 0.0
Postemergence herbicidal rating ECHCG (ECHCG (Barnyardgrass); Rate 0.1250 kg/ha): 2.0
Postemergence herbicidal rating GLXMAW ([6]; Rate 0.0158 kg/ha): 3.5
Postemergence herbicidal rating GLXMAW ([6]; Rate 0.0313 kg/ha): 5.5
Postemergence herbicidal rating GLXMAW ([6]; Rate 0.0625 kg/ha): 6.0
Postemergence herbicidal rating GLXMAW ([6]; Rate 0.1250 kg/ha): 6.0
Preemergence herbicidal rating SETVI (SETVI (Foxtail, Green) [7]; rate 0.0156 kg/ha): 0.0
Preemergence herbicidal rating SETVI (SETVI (Foxtail, Green) [7]; rate 0.0313 kg/ha): 0.0
Preemergence herbicidal rating SETVI (SETVI (Foxtail, Green) [7]; rate 0.0625 kg/ha): 0.5
Preemergence herbicidal rating SETVI (SETVI (Foxtail, Green) [7]; rate 0.1250 kg/ha): 3.5
Preemergence herbicidal rating SETVI (SETVI (Foxtail, Green) [7]; rate 0.2500 kg/ha): 9.0
Preemergence herbicidal rating SETVI (SETVI (Foxtail, Green) [7]; rate 0.5000 kg/ha): 9.0
Postemergence herbicidal rating ABUTH (ABUTH (Velvetleaf) [8]; Rate 0.0158 kg/ha): 5.0
Postemergence herbicidal rating ABUTH (ABUTH (Velvetleaf) [8]; Rate 0.0313 kg/ha): 9.0
Postemergence herbicidal rating ABUTH (ABUTH (Velvetleaf) [8]; Rate 0.0625 kg/ha): 9.0
Postemergence herbicidal rating ABUTH (ABUTH (Velvetleaf) [8]; Rate 0.1250 kg/ha): 9.0
